Assay results published in patent US20210236513A1, “NOVEL USES” (ZARODEX THERAPEUTICS LIMITED, priority 2018, published 2021).

Tests used:
CD20 = target: T1, CD20 (Homo sapiens, UniProt P11836); conditions: Arnold et al., 2017; Khellaf et al., 2014; cited from earlier work
T1 construct: host or cells: B cells of patients in vivo
T1 sequence (P11836 1-297): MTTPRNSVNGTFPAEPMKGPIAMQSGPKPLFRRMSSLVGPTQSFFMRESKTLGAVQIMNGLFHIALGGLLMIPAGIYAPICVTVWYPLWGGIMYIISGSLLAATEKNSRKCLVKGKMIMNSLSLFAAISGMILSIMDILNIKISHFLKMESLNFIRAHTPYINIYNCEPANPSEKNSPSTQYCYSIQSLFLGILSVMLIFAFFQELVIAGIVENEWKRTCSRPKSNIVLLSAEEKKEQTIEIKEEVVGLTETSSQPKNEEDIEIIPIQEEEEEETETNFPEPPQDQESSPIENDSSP

[1] = test system: splenic B cell and T cell populations; test: Wild type mouse study, spleen immunophenotyping by flow cytometry
[2] = test system: total peripheral blood B-cells from healthy donors differentiating to plasmablasts and plasma cells
[3] = test system: Immunoglobulin levels (IgG, IgA and IgM); test: Serum immunoglobulin levels by nephelometry, cross-sectional case control study of clozapine-treated vs clozapine-naive patients; format: in vivo, human
[4] = test system: specific antibody levels against Haemophilus B (Hib), Tetanus and Pneumococcus; set-up: species or system human; conditions: in vivo
[5] = Infection questionnaire, antibiotic courses and hospital admissions, same case control study; format: in vivo, human
serum IgG, IgA and IgM = test: Serum immunoglobulins in clozapine patients referred to Immunology clinic; format: in vivo, human
[6] = test system: IgG to Haemophilus influenza B, Pneumococcus and Tetanus; conditions: human, in vivo
[7] = test system: circulating total IgG, IgA, IgM and pneumococcal-specific IgG; test: Second observational study (interim), circulating immunoglobulins; format: in vivo, human; conditions: interim analysis
[8] = test system: circulating B cell subsets; test: Second observational study (interim), peripheral blood B cell subsets by FACS; format: in vivo, human; conditions: interim analysis
[9] = Wild type mouse study, body weight; format: in vivo, C57BL/6 mice; conditions: 5 mg/kg and 10 mg/kg IP once daily; maximal by 3 days, recovering fully to baseline by day 9
[10] = test system: collagen-induced arthritis; test: Collagen-induced arthritis (CIA) model, onset, clinical score and paw-swelling; format: in vivo, DBA/1 mice
Text: Adult (age 13-15 weeks) DBA/1 male mice were purchased from Envigo (Horst, Netherlands). […] 1. […] All experiments were approved by the Clinical Medicine Animal Welfare and Ethical Review Body (AWERB) and by the UK Home Office. DBA/1 mice were immunised with bovine type II collagen in CFA and monitored daily for onset of arthritis. […] Controls received vehicle (saline) alone. Treatment of mice commenced in one experiment on day 1 after immunisation and in a second experiment on day 15 after immunisation. Clinical scores and paw-swelling were monitored for 10 days following onset of arthritis. A clinical scoring system was used as follows. Arthritis severity was scored by an experienced, non-blinded investigator as follows: 0=normal, 1=slight swelling and/or erythema, 2=pronounced swelling, 3=ankylosis. […] Data were analyzed by one-way ANOVA with Tukey's or Dunnett's multiple comparison test or two-way ANOVA with Tukey's multiple comparison test as appropriate. All calculations were made using GraphPad Prism software.

[11] = test system: B220+ B cells, plasma cells, germinal centre B cells; test: CIA model, B cell subsets in spleen and lymph nodes by FACS; format: in vivo, DBA/1 mice
[12] = test system: anti-type II collagen IgG1 and IgG2a; test: CIA model, anti-collagen immunoglobulin by ELISA; format: in vivo, DBA/1 mice
[13] = test system: T follicular helper cells (CD4+ PD1+ CXCR5+); test: CIA model, T follicular helper cells by FACS; format: in vivo, DBA/1 mice
[14] = test system: class switched memory B cells, plasmablasts and other B cell subsets
[15] = test system: treatment-resistant schizophrenia; conditions: schizophrenic patients; cited from earlier work
[16] = test system: serum/plasma IgG, IgA, IgM; conditions: cited from earlier work
[17] = Michel et al., 2015; cited from earlier work
[18] = test system: bone marrow B cell subsets; test: Wild type mouse study, bone marrow B cell immunophenotyping by flow cytometry
[19] = clozapine-treated patients post-exclusion, n=94
[20] = number of admissions, clozapine-treated patients
[21] = FIG. 3B, referred clozapine patients
[22] = outpatients on clozapine for at least five years (Lozano et al., 2016)
[23] = six weeks treatment (Hinze-Selch et al., 1998)
[24] = 10 mg/kg clozapine IP, 21 days, FIG. 18

## rituximab
CD20
  Patients with ITP in whom platelet count improved: ~60%

## O=C(CCCN1CCC(O)(c2ccc(Cl)cc2)CC1)c1ccc(F)cc1 [Haloperidol, haloperidol]
[1]; FIG. 21
  Activated T cells (B220+TCR-β+) in spleen compared to control: also modestly apparent

## Clc1ccc2c(c1)N=C(N1CCNCC1)c1ccccc1N2 [Norclozapine, norclozapine]
[2]
  Direct toxicity to differentiating B-cells: no direct toxicity effect

## CN1CCN(C2=Nc3cc(Cl)ccc3Nc3ccccc32)CC1 [Clozapine, clozapine]
[3]; human, in vivo
  Concentrations of IgG, IgA and IgM vs clozapine-naive control group: significantly reduced
[3]; p 0.014, FIG. 2, not observed in clozapine-naive patients
  Effect of duration of clozapine therapy on serum IgG: associated with lower serum IgG levels
[4]
  IgM-Pneumococcus, mean (SEM in the line below): 58.5 U/L
[5]; clozapine group vs 0.06 in controls
  Admitted to hospital with infection: 0.12 per patient year
[5]; [19]
  Antibiotic courses per year: 1-5 courses, percentage of patients: 33.0%
  Antibiotic courses per year: >5 courses, percentage of patients: 5.3%
  Antibiotic courses per year: nil courses, percentage of patients: 61.7%
[5]; clozapine-treated patients post-exclusion, n=94, listed as clozapine
  Antibiotic courses per year: >5 courses, percentage of patients: 5.3%
[5]; [20]
  Admission frequency in 12-month period, all cause: 21
  Admission frequency in 12-month period, infection-related: 15
Serum IgG, IgA and IgM; one patient, after 24 months
  Serum IgA after clozapine was stopped: 0.29 g/L
  Serum IgM after clozapine was stopped: 0.49 g/L
Serum IgG, IgA and IgM; referred clozapine patients
  Mean IgA: 0.34 g/L
  Mean IgG: 3.6 g/L
  Mean IgM: 0.21 g/L
[6]
  Individuals failing to develop an IgG response above ≥50 mg/L: 73%
  Individuals failing to mount a Haemophilus-IgG response ≥1 mcg/ml: 42%
  Patients with IgG to Haemophilus influenza B (HiB) <1 mcg/ml at initial assessment: 75%
  Patients with Pneumococcus-IgG <50 mg/L at initial assessment: 94%
  Patients with Tetanus-IgG <0.1 IU/mL at initial assessment: 38%
  Vaccine response of individual referred patient: Failure to responds to
[7]; FIG. 6A-C
  Levels of circulating total IgG, IgA and IgM vs clozapine naive: Significantly reduced
[7]; FIG. 7
  IgG antibodies against pneumococcus vs clozapine naive: trend to lower
[8]; FIG. 8A-B
  Overall CD19+ B cell numbers vs clozapine naive: not significantly different
[8]; FIG. 9A-C
  Naive (CD19+ CD27-) B cells as a proportion of total CD19+ B cells: Small increase
[8]; FIG. 10A-C
  Overall memory B cell pool: without perturbation
[8]; FIG. 12A-C
  IgMhi IgDlo memory B cell subpopulation: without perturbation
[8]; FIG. 13A-C
  Circulating levels of transitional B cells: No significant difference
[8]; FIG. 14A-C
  Circulating levels of marginal zone B cells: No significant difference
[8]; P=0.06 vs control, FIG. 11A-C
  Class-switched memory B cells (CD27+ IgM- IgD- as % B): Strong trends to a specific reduction
[8]; P=0.07 vs control clozapine naive, FIG. 15A-C
  Levels of plasmablasts: Strong trends to reduction
[9]
  Body weight: transient fall in body weight
[10]; 10 mg/kg clozapine from day 1, FIG. 27
  Swelling of the first affected paw: reduced swelling of the first affected paw
[10]; both doses of clozapine (5, 10 mg/kg) from day 1
  Arthritis onset: extremely effective in delaying arthritis onset
[10]; both doses, administered on day 1, FIG. 27
  Overall clinical score: reduced overall clinical score
[10]; clozapine 5 or 10 mg/kg IP daily from day 1 or day 15, FIGS. 25 and 26
  Onset of arthritis post-immunisation: significantly effective in delaying the onset
[10]; most apparent when dosed just after CII immunisation, FIG. 26
  Incidence of CIA: reduces the incidence
[10]; significant with dosing at D1, FIG. 28
  Total number of affected paws compared to vehicle control: reduced the total number of affected paws
[11]; 10 mg/kg clozapine given on day 1, FIG. 30
  Proportion of plasma cells in spleen: significant reduction
[11]; 10 mg/kg from day 1
  Proportion of B220+ B cells in spleen: significantly reduced
[11]; all clozapine treatment groups vs vehicle, FIG. 32
  Level of GL7 expression on follicular B cells in lymph node: significantly decreased
[11]; all doses and time points (5 or 10 mg/kg from day 1 or day 15), FIG. 29
  Percentage of B220+ B cells in lymph nodes: significantly lower percentage
[11]; all doses/both time points, FIG. 31
  Lymph node follicular B cells (B220+IgD-Fas+GL7hi): Strikingly significant reductions
[12]; 10 mg/kg from day 15, FIG. 33
  Reduction of anti-type II collagen IgG1: reaching statistical significance
[12]; 5 or 10 mg/kg from day 1 or day 15, single time point, FIG. 33
  Serum anti-type II collagen IgG2a: no significant impact
[12]; across all doses tested, FIG. 33
  Levels of anti-type II collagen IgG1: nominal reductions
[13]; 5 or 10 mg/kg from day 1 or day 15, FIG. 34
  Proportions of CD4+PD1+CXCR5+ T follicular helper cells in lymph node or spleen: did not significantly affect
[13]; all doses and time points, FIG. 35
  Expression of PD-1 in lymph node T follicular helper cells (MFI): Reduced expression of PD-1
[13]; dosed from day 1, lymph node and spleen, FIG. 36
  CXCR5 expression on T follicular helper cells (MFI): significant reductions
[13]; lymph node and spleen, FIG. 37
  Expression of CCR7 on germinal centre resident T follicular helper cells: reduction in expression of CCR7
[14]; [21]
  CSMB vs healthy controls: significant reduction
  Marginal zone B cell numbers vs healthy control: no significant difference
  Total B cell numbers vs CVID and healthy controls: similar
[14]; human, in vivo
  Overall lymphopenia or B cell lymphopenia: no severe overall lymphopenia or B cell lymphopenia
[2]
  Direct toxicity to differentiating B-cells: no direct toxicity effect
[15]
  Previously treatment refractive patients in whom effective: approximately 60%
[16]; [22]
  IgA, IgG, absolute neutrophil count and white blood cell count vs control group: no differences were found
  Mean plasma levels of IgM vs control group: overall decrease
[16]; [23]
  IgA or IgM concentrations, pattern of autoantibodies: no significant effect
  Serum concentrations of IgG: significant increases
[17]
  CNS penetration: high levels of CNS penetration
[1]; FIG. 21
  Activated T cells (B220+TCR-β+) in spleen compared to control: reduced in dose-dependent fashion
  Other splenic cell populations (B220-TCR-β-): No effect
  Percentage of splenic T cells (B220-TCR-β+): reciprocal increase
[1]; FIG. 22
  Splenic follicular B cell subset: no specific reductions
  Splenic marginal zone B cell subset: no specific reductions
[1]; across all doses of clozapine, FIG. 22
  Proportion of T2 B cells in the spleen: small increase
[1]; clozapine at 5 mg/kg and 10 mg/kg, FIG. 21
  Percentage of splenic B cells (B220+TCR-β-) of total live splenocytes: significantly lower percentage
[1]; including at the 2.5 mg/kg dose, FIG. 22
  Proportion of transitional stage 1 (T1) B cells in the spleen: mildly reduced proportion
[1]; steady state, FIG. 22
  Germinal centre cells in the spleen versus control or haloperidol: no differences observed
[18]; [24]
  Pro-B cell fraction in bone marrow: without any change
  Proportion of pre-pro B cells in bone marrow: significant increase
[18]; FIG. 19
  Percentage of immature B cells in bone marrow: reduction
[18]; any dose of clozapine (2.5, 5, 10 mg/kg IP, 21 days), FIG. 18
  Overall B cells in the bone marrow: No overall reduction
[18]; dose-dependent, significant vs control even at 2.5 mg/kg, FIG. 19
  Pre-B cells in bone marrow: reduction
[18]; reaching significance for the 5 mg/kg dose, FIG. 19
  Percentage of proliferating pre-B cells in bone marrow: diminished
